In ChEMBL document CHEMBL5674866 (J Biol Chem, 2015):

What was measured:
Myosin-IIIa = Myosin-IIIa (Homo sapiens, UniProt Q8NEV4); assay: Inhibition of human MYO3A by discoverX kinome scan assay
[1] = Inhibition of human ABL1 pM351T mutant by discoverX kinome scan assay
KYSE-150 cell line = assay: Effect on cellular post-translational modifications on histone […] (GKGGKGLGKGGAKR) - K5 acetylated , K8 unmethylated , K12 acetylated, K16 unmethylated in human KYSE-150 cells assessed as relative abundance at 5 by mass spectrometric analysis (reference value: 3+/-1.7); format: functional; details: dose 5 µM
[2] = Inhibition of human ABL1 pT315I mutant by discoverX kinome scan assay
[3] = target: T1, Mitogen-activated protein kinase 13 (Homo sapiens, UniProt O15264); assay: Inhibition of human p38-delta by discoverX kinome scan assay
T1 sequence (O15264 whole entry): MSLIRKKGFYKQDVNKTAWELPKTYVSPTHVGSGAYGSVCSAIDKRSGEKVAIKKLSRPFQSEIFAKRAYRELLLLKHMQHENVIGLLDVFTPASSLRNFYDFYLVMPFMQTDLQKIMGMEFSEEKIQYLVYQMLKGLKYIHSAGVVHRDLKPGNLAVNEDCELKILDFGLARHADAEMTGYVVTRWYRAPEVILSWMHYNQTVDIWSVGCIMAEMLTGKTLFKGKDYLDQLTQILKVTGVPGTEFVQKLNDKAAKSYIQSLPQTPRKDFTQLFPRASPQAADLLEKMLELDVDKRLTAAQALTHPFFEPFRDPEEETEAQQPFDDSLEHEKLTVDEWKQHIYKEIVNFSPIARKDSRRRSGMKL

[4] = Inhibition of human ABL1 pH396P mutant by discoverX kinome scan assay
[5] = target: Phosphatidylinositol 4,5-bisphosphate 3-kinase catalytic subunit beta isoform (Homo sapiens, UniProt P42338); assay: Inhibition of human PIK3CB by discoverX kinome scan assay
[6] = target: Serine/threonine-protein kinase MRCK beta (Homo sapiens, UniProt Q9Y5S2); assay: Inhibition of human MRCKB by discoverX kinome scan assay
[7] = target: Protein kinase C eta type (Homo sapiens, UniProt P24723); assay: Inhibition of human PRKCH by discoverX kinome scan assay
[8] = target: T2, Serine/threonine-protein kinase Nek2 (Homo sapiens, UniProt P51955); assay: Inhibition of human NEK2 by discoverX kinome scan assay
T2 sequence (P51955 whole entry): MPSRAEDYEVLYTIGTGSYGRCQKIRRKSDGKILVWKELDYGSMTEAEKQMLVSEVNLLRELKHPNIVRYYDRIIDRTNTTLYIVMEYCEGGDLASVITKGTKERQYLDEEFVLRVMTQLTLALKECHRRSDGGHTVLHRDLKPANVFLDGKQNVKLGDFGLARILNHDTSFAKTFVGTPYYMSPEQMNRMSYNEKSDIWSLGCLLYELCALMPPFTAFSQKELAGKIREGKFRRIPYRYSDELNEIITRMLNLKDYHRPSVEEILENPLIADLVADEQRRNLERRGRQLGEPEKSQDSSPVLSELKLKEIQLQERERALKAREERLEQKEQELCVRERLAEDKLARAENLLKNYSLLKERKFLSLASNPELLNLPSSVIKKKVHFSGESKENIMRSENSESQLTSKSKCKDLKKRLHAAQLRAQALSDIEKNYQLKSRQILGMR

Serine/threonine-protein kinase MRCK beta, sequence (Q9Y5S2 whole entry): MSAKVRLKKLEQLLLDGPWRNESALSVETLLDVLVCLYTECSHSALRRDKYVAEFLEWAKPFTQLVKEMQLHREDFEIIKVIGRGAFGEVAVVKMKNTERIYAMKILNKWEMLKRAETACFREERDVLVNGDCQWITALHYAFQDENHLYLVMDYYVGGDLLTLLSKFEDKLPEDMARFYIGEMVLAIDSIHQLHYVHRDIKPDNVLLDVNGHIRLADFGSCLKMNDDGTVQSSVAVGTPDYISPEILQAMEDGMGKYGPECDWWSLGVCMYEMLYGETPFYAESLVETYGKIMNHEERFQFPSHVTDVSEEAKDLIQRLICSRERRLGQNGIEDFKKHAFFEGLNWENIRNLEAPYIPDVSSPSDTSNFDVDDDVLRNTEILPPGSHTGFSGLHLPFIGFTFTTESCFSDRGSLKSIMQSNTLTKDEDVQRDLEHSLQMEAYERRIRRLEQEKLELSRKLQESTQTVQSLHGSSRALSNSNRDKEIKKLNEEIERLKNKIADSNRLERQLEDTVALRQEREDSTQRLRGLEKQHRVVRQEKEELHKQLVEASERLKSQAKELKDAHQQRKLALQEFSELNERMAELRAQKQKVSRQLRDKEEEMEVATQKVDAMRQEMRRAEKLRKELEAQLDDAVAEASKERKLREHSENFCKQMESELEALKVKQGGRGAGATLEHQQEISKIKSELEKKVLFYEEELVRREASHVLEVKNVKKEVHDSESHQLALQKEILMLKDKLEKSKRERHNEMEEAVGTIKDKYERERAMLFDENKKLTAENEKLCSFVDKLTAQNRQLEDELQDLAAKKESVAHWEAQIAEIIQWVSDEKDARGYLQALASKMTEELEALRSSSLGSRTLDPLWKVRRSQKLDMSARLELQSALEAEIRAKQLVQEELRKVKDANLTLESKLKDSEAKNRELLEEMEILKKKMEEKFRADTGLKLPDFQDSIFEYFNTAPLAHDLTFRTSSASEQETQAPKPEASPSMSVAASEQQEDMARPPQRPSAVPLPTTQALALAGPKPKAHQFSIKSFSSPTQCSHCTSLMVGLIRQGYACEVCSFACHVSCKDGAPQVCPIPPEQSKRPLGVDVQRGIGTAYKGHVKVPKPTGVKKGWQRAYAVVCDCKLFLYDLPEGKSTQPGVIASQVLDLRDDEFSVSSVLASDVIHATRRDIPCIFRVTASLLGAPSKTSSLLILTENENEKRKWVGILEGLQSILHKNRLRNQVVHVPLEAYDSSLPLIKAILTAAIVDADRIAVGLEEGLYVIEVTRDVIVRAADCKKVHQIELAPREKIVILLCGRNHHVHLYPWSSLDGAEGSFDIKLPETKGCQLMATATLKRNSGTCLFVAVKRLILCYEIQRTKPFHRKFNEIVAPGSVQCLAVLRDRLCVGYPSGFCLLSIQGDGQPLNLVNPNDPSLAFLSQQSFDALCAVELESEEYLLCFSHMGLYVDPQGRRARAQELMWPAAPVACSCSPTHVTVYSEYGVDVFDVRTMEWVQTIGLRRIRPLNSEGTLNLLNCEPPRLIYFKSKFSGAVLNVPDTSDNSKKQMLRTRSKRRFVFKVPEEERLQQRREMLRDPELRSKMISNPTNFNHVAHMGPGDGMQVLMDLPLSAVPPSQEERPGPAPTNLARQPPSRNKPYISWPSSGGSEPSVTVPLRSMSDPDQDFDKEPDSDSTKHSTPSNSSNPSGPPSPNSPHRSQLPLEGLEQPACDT
Myosin-IIIa, sequence (Q8NEV4 whole entry): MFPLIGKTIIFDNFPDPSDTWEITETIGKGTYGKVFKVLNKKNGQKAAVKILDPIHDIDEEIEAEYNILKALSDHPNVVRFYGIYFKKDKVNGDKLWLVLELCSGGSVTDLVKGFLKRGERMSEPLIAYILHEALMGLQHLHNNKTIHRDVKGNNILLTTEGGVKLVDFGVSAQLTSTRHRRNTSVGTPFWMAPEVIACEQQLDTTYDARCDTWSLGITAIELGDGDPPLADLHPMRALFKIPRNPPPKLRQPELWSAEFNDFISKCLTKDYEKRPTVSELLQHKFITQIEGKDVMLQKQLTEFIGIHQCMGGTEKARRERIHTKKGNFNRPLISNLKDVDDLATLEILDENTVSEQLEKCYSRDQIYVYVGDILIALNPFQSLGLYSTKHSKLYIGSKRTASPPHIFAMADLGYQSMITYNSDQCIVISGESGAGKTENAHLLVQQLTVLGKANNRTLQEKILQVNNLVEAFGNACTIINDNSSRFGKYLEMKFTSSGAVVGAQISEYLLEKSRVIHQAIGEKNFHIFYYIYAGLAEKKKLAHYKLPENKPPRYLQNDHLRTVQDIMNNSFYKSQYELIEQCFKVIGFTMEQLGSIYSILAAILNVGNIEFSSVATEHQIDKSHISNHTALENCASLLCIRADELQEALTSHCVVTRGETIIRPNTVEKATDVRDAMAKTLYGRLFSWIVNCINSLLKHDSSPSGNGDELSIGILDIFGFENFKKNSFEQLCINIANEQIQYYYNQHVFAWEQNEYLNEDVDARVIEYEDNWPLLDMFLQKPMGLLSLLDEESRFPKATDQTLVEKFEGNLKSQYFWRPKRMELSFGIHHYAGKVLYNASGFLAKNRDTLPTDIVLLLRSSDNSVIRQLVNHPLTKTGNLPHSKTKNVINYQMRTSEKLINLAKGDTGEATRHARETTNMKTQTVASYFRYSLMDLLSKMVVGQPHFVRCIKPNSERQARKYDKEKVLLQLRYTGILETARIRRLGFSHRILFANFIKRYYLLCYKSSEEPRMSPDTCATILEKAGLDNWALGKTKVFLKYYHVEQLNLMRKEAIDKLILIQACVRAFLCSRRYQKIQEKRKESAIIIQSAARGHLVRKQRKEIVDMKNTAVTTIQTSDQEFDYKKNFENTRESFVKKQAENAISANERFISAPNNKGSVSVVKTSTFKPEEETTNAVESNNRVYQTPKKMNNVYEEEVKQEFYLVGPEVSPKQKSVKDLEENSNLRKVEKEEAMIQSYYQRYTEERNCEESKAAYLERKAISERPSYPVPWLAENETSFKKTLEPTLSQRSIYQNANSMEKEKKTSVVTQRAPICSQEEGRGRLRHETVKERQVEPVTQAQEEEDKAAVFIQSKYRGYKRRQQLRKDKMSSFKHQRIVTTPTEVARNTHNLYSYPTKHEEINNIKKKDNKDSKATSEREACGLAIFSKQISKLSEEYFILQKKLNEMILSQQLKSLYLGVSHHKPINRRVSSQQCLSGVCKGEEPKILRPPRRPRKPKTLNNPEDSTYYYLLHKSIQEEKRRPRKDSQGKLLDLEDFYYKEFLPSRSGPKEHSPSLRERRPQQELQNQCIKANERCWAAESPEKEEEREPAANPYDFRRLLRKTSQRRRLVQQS
Protein kinase C eta type, sequence (P24723 whole entry): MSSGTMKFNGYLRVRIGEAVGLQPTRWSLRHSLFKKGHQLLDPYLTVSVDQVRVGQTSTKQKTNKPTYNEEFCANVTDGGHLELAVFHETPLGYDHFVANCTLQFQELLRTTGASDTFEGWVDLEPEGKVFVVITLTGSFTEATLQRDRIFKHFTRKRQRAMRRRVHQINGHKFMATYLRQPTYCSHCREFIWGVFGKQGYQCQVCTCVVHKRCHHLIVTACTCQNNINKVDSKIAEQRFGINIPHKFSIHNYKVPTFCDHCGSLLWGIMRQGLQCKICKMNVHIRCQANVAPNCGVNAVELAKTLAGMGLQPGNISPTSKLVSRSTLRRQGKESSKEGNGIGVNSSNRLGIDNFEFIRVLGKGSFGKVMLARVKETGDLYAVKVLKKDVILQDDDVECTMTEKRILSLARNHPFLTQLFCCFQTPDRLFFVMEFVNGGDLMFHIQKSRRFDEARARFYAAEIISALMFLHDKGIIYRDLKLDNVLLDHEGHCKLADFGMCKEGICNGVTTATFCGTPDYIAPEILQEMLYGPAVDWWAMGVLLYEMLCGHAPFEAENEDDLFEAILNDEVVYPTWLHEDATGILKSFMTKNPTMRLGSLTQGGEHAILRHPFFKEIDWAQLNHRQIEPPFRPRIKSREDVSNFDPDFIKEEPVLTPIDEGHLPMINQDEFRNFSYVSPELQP
Phosphatidylinositol 4,5-bisphosphate 3-kinase catalytic subunit beta isoform, sequence (P42338 whole entry, canonical isoform): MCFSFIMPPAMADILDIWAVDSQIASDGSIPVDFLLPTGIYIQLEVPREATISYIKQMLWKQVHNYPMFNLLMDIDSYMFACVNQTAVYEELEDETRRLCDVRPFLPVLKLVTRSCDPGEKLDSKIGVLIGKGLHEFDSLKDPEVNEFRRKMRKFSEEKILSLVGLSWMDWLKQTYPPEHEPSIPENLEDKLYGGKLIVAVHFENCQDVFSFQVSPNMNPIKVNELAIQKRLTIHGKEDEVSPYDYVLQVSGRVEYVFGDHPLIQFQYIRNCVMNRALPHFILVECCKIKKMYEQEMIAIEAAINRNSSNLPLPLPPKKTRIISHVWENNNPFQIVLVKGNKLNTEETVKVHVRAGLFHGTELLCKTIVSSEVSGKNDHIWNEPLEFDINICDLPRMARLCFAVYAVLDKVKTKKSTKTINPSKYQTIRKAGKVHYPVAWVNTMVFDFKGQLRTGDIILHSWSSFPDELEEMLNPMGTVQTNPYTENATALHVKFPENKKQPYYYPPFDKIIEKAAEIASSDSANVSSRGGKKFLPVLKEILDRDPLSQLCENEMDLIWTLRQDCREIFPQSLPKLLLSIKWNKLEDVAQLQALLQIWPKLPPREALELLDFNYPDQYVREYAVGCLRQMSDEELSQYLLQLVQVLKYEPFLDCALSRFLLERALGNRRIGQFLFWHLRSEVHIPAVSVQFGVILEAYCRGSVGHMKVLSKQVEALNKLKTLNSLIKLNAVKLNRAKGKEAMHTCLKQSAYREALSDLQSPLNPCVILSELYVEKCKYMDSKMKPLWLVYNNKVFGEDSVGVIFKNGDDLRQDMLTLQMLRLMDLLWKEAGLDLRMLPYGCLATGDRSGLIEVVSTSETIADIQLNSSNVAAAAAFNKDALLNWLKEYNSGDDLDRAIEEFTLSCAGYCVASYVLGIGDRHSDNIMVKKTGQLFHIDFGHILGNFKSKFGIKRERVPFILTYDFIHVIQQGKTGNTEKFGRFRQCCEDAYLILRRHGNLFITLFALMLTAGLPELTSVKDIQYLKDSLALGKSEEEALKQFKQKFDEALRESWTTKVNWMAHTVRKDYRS

## Cc1cn(CCN2CCN(c3ccccc3-c3cc(C#N)cc(C(=O)NCCCN4CCCC4)c3)CC2)c2ccccc12
Myosin-IIIa
  IC50: > 20 µM
[1]
  IC50: > 20 µM
KYSE-150 cell line
  Activity: 1.6
[2]
  IC50: > 20 µM
[3]
  IC50: > 20 µM
[4]
  IC50: > 20 µM
[5]
  IC50: > 20 µM
[6]
  IC50: > 20 µM
[7]
  IC50: > 20 µM
[8]
  IC50: > 20 µM
